One assay has as its system VZV strain Ellen. As to the kind of experiment: VZV Antiviral (ELISA) Assay in human foreskin fibroblast cells. The class given is cell-based, varicella-zoster virus. As to conditions: for IC50 / inhibition at 10 µg/mL: Human alphaherpesvirus 3, Fibroblast; for IC50: read-out: IC50 (ug/ml) VZV; for inhibition at 10 µg/mL: read-out: % inhibition 10 ug/ml VZV, 10 ug/ml. As for the experimental part: For the generation of stock VZV to be used in the assay, VZV strain Ellen (ATCC #VR-1367) is used to infect human foreskin fibroblast (HFF) cells at low multiplicity (less than 0.1) and incubated overnight at 37° C. in 5% CO2. After the overnight incubation, the mixture of uninfected and VZV-infected HFF infected cells are then harvested and added to each well of 96-well plates (3.5×10^4 cells in 100 μl DMEM supplemented with 2% FBS) which contain test compound or the reference standard drug control (in 100 μl DMEM supplemented with 2% FBS per well). These cells are incubated for three days at 37° C. in 5% CO2, then fixed for ELISA assay. The primary antibody is murine anti-VZV glycoprotein II monoclonal antibody (Applied Biosystems, Inc. #13-145-100) and the secondary antibody is goat anti-mouse IgG linked to β-galactosidase. Thus the extent of viral replication is determined by assessing β-galactosidase activity by quantifying the generation of the 4-methyl umbelliferone fluorescent cleavage product after addition of the methyl umbelliferyl-β-D-galactoside (Sigma #M1633) substrate on a microfluorimeter (365 nm for excitation and 450 nm for emission). Antiviral activity (IC50) of the test compound is determined by comparing the flourescence obtained in absence of compound to that obtained in the presence of compound.
A general note: An ELISA detects its analyte on a solid surface through an enzyme-linked reagent.

Assay [1] deals with HCMV recombinant mutant virus (RV145). In words: microbe, parasite or virus in culture. The conditions noted are these: for IC50: Human betaherpesvirus 5, read-out: IC50 ug/ml HCMV, HCMV. Format: cell-based, human cytomegalovirus. The source says:
Microtiter plate assay. Ninety-six well plate cultures of human foreskin fibroblasts are infected in the presence of inhibitor compound with a HCMV recombinant mutant virus whose genome contains the prokaryotic beta-glucuronidase gene (Jefferson, R. A., S. M. Burgess, and D. Hirsh. 1986. Beta-glucuronidase from Escherichia coli as a gene fusion marker. Proc. Natl. Acad. Sci. USA 83:8447-8451) whose expression is controlled by a viral promoter. An example of such a virus is RV145 (Jones, T. R., V. P. Muzithras, and Y. Gluzman. 1991. Replacement mutagenesis of the human cytomegalovirus genome: US10 and US11 gene products are nonessential. J. Virol. 65:5860-5872). Since it is under the control of a viral promoter, beta-glucuronidase expression is an indirect indicator of growth and replication of HCMV in this assay. At 96 hours post-infection, the infected cell lysates are prepared (using 50 mM sodium phosphate [pH7.0]containing 0.1% Triton X-100 and 0.1% sarkosyl) and assayed for beta-glucuronidase activity using a substrate for the enzyme which when cleaved yields either a product which can be measured […] in a spectrophotometer or fluorescently in a microfluorimeter. Examples of such substrates are p-nitrophenyl-beta-D-glucuronide and methylumbelliferylglucuronide, respectively. The presence of an antiviral compound is indicated by the reduced expression of the HCMV genome resident beta-glucuronidase gene, compared to the absence of inhibitor. […] Data from this assay generated using varying amounts of inhibitor compound is also used to estimate the IC50 of an inhibitor compound.

For the next assay, the system named is HSV-1. In words: HSV Antiviral (ELISA) Assay in Vero cells. The class given is cell-based, herpes simplex virus type 1. As to conditions: HSV-1, Vero cells; for IC50: Human alphaherpesvirus 1, read-out: IC50 (ug/ml) HSV. As for the experimental part: Vero cells (ATCC #CCL-81) are plated on 96-well tissue culture plates at 3.5×10^4 cells per 100 μl tissue culture DMEM (Dulbeccos modified Eagle media) supplemented with 2% fetal bovine serum (FBS) in each well. After overnight incubation @ 37° C. (in 5% CO2) and 30 minutes prior to infection with HSV-1 (multiplicity of infection equal to 0.006), cells are either untreated, or treated with test compound (multiple concentrations) or reference standard drug control. After approximately 24 hours post-infection incubation @ 37° C. (in 5% CO2), cells are fixed for ELISA assay. The primary antibody is murine anti-HSV glycoprotein D monoclonal primary antibody and the secondary antibody is goat anti-mouse IgG linked to β-galactosidase. Thus the extent of viral replication is determined by assessing β-galactosidase activity by quantifying the generation of the 4-methyl umbelliferone fluorescent cleavage product after addition of the methyl umbelliferyl-β-D-galactoside (Sigma #M1633) substrate on a microfluorimeter (365 nm for excitation and 450 nm for emission). Antiviral activity (IC50) of the test compound is determined by comparing the flourescence obtained in absence of compound to that obtained in the presence of compound.

Each structure is given as a SMILES string. ≈ marks a conversion by molar mass, not a printed value. Where only a bound is given, the exact number is not on record here.

In the case of `C[C@H](NC(=S)Nc1ccc(NC(=O)c2cc3ccccc3cn2)cc1)c1ccc(Br)cc1` [Example 1108], in the assay with VZV strain Ellen, the “IC50 (ug/ml) VZV” value is 0.05 µg/mL (≈ 0.0989 µM). Besides, the “IC50 ug/ml HCMV” value in assay [1] is 2.3 µg/mL (≈ 4.55 µM).
Consider `Nc1ccc(C(F)(F)F)cc1NC(=S)Nc1ccc(NC(=O)c2ccccc2F)cc1` [Example 999, N-{4-[3-(2-Amino-5-trifluoromethyl-phenyl)-thioureido]-phenyl}-2-fluoro-benzamide], for which the IC50 was 9.4 µg/mL (≈ 21 µM) with VZV strain Ellen and 4 µg/mL (≈ 8.92 µM) in assay [1].
As for `Nc1cccc(NC(=S)Nc2ccc(NC(=O)c3ccccc3F)cc2)c1` [Example 434], in the assay on VZV strain Ellen, the “IC50 (ug/ml) VZV” value was above 10 µg/mL and the “% inhibition 10 ug/ml VZV” value was 0%. Besides, the “IC50 ug/ml HCMV” value in assay [1] was 5 µg/mL (≈ 13.1 µM).
For `COc1ccccc1C(=O)Nc1ccc(NC(=S)N[C@@H](C)c2ccc(Br)cc2)cc1` [Example 1104], the “IC50 (ug/ml) VZV” value in the assay on VZV strain Ellen was determined as 0.09 µg/mL (≈ 0.186 µM). Also, the “IC50 ug/ml HCMV” value in assay [1] stood at 4.9 µg/mL (≈ 10.1 µM).
The matching figures for `O=C(Nc1ccc(NC(=S)Nc2cc(N3CCCC3)cc(C(F)(F)F)c2)cc1)c1ccccc1F` [Example 566]: 2 µg/mL (≈ 3.98 µM) and above 0.5 µg/mL.
`C[C@H](NC(=S)Nc1ccc(NC(=O)c2ccc(F)cc2)cc1)c1ccc(Br)cc1` [Example 1103]: in the assay on VZV strain Ellen, the “IC50 (ug/ml) VZV” value came out at 0.47 µg/mL (≈ 0.995 µM). In addition, the “IC50 ug/ml HCMV” value in assay [1] was 3.4 µg/mL (≈ 7.2 µM).
Consider `O=C(Nc1ccc(NC(=S)Nc2cccc(OC(F)(F)F)c2)cc1)c1ccccc1F` [Example 961, 2-Fluoro-N-{4-[3-(3-trifluoromethoxy-phenyl)-thioureido]-phenyl}-benzamide], for which the inhibition at 10 µg/mL in the assay on VZV strain Ellen was determined as 53%. For the same compound, the IC50 (in the assay on VZV strain Ellen; in assay [1]) was above 10 µg/mL each time.
`O=C(Nc1ccc(NC(=S)NCCOc2cc(Cl)cc(Cl)c2)cc1)c1ccccc1F` [Example 664]: in assay [1], the “IC50 ug/ml HCMV” value was above 0.5 µg/mL.
With `CC(NC(=S)Nc1ccc(NC(=O)c2ccccc2C(F)(F)F)cc1)c1ccc(F)cc1` (stereo not shown) [Example 992, N-(4-{3-[1-(4-Fluoro-phenyl)-ethyl]-thioureido}-phenyl)-2-trifluoromethyl-benzamide], the results for the IC50 (in the assay with VZV strain Ellen; in assay [1]) were 1.2 µg/mL (≈ 2.6 µM) and 4 µg/mL (≈ 8.67 µM), respectively.
Regarding `COc1ccccc1C(=O)Nc1ccc(NC(=S)N[C@H](C)c2ccc(Br)cc2)cc1` [Example 1105], the “IC50 (ug/ml) VZV” value with VZV strain Ellen was above 7.5 µg/mL. Also, the “IC50 ug/ml HCMV” value in assay [1] was determined as 2.5 µg/mL (≈ 5.16 µM).
Consider `CN(C)c1cc(NC(=S)Nc2ccc(NC(=O)c3ccccc3F)cc2)cc(C(F)(F)F)c1` [Example 567], for which the IC50 in the assay on VZV strain Ellen was 2 µg/mL (≈ 4.2 µM); in assay [1], above 0.5 µg/mL.
In the case of `CC(NC(=S)Nc1ccc(NC(=O)c2cccc(Cl)c2)cc1)c1ccc(F)cc1` (stereo not shown) [Example 761], in the assay with VZV strain Ellen, the “IC50 (ug/ml) VZV” value was above 10 µg/mL. Also, the “IC50 ug/ml HCMV” value in assay [1] turned out to be 1.5 µg/mL (≈ 3.51 µM).
Consider `NC(=O)c1cccc(NC(=S)Nc2ccc(NC(=O)c3ccccc3F)cc2)c1` [Example 952, N-[4-[[[[3-(Aminocarbonyl)phenyl]amino]thioxomethyl]amino]phenyl]-2-fluoro-benzamide], for which, in the assay with VZV strain Ellen, the inhibition at 10 µg/mL worked out at 22% and the IC50 was above 10 µg/mL. For the same compound, in assay [1], the IC50 is above 10 µg/mL.
Consider `O=C(Nc1ccc(NC(=S)Nc2cc(N3CCOCC3)cc(C(F)(F)F)c2)cc1)c1ccccc1F` [Example 568], for which the “IC50 (ug/ml) VZV” value with VZV strain Ellen was 2.3 µg/mL (≈ 4.44 µM). Further, the “IC50 ug/ml HCMV” value in assay [1] is above 0.5 µg/mL.
The like results for `CN(C)c1ccc(CNC(=S)Nc2ccc(NC(=O)c3ccccc3F)cc2)cc1C(F)(F)F` [Example 610] were, in that order, above 10 µg/mL and above 0.5 µg/mL.
On to `CC(NC(=S)Nc1ccc(NC(=O)c2ccc(N(C)C)cc2)cc1)c1ccc(F)cc1` (stereo not shown) [Example 765], for which the “IC50 ug/ml HCMV” value in assay [1] is 2.3 µg/mL (≈ 5.27 µM).
Same read-out and setting: for `O=C(Nc1ccc(NC(=S)NCCOc2cccc(Cl)c2)cc1)c1ccccc1F` [Example 666] the value was above 0.5 µg/mL.
`COc1cc(OC)c(NC(=S)Nc2ccc(NC(=O)c3cccc(N(C)C)c3)cc2)cc1Cl` [Example 136]: in the assay on VZV strain Ellen, the “IC50 (ug/ml) VZV” value was above 10 µg/mL and the “% inhibition 10 ug/ml VZV” value turned out to be 40%. Moreover, in the assay with HSV-1, the “IC50 (ug/ml) HSV” value was determined as 1 µg/mL (≈ 2.06 µM).
The like results for `CC(=O)Nc1ccc(NC(=S)Nc2ccc(NC(=O)c3ccccc3F)cc2)cc1Cl` [Example 397] were, in that order, above 10 µg/mL, 35% and 5 µg/mL (≈ 10.9 µM).
Consider `COc1ccc(C(C)NC(=S)Nc2ccc(NC(=O)c3ccccc3F)cc2)cc1Cl` (stereo not shown) [Example 1000, N-(4-{3-[1-(3-Chloro-4-methoxy-phenyl)-ethyl]-thioureido}-phenyl)-2-fluoro-benzamide], for which the IC50 in the assay on VZV strain Ellen was 6 µg/mL (≈ 13.1 µM); in the assay on HSV-1, above 10 µg/mL.
With `CC(NC(=S)Nc1ccc(NC(=O)c2cc3ccccc3cn2)cc1)c1ccc(Br)cc1` (stereo not shown) [Example 987, Isoquinoline-3-carboxylic acid (4-{3-[1-(4-bromo-phenyl)-ethyl]-thioureido}-phenyl)-amide], the IC50 came out at 0.046 µg/mL (≈ 0.091 µM) in the assay with VZV strain Ellen and 3 µg/mL (≈ 5.94 µM) with HSV-1.
On to `COc1cccc(C(=O)Nc2ccc(NC(=S)Nc3cc(Cl)c(OC)c(Cl)c3)cc2)c1` [Example 875, N-{4-[3-(3,5-Dichloro-4-methoxy-phenyl)thioureido]-phenyl}-3-methoxy-benzamide], for which, in the assay on VZV strain Ellen, the inhibition at 10 µg/mL was determined as 20% and the IC50 was above 10 µg/mL. Also, the IC50 with HSV-1 is 6 µg/mL (≈ 12.6 µM).
For the compound `C[C@@H](NC(=S)Nc1ccc(NC(=O)c2ccccc2F)cc1)c1ccc(Br)cc1` [Example 1005, N-(4-{3-[(1R)-1-(4-Bromo-phenyl)-ethyl]-thioureido}-phenyl)-2-fluoro-benzamide], the IC50 with VZV strain Ellen turned out to be 4.3 µg/mL (≈ 9.1 µM); with HSV-1 it was 2.9 µg/mL (≈ 6.14 µM).
The like results for `CC(NC(=S)Nc1ccc(NC(=O)c2ccccc2F)cc1)c1cccc(C#N)c1` (stereo not shown) [Example 791] were, in that order, 7 µg/mL (≈ 16.7 µM) and above 10 µg/mL.
`CC(NC(=S)Nc1ccc(NC(=O)c2ccccc2F)cc1)c1ccc(C(F)(F)F)cc1` (stereo not shown) [Example 787]: the IC50 was above 7.5 µg/mL in the assay with VZV strain Ellen and above 10 µg/mL in the assay with HSV-1.
On to `COc1cc(OC)c(NC(=S)Nc2ccc(NC(=O)c3ccc4ccccc4c3)cc2)cc1Cl` [Example 156], for which, in the assay with VZV strain Ellen, the “IC50 (ug/ml) VZV” value was above 10 µg/mL and the “% inhibition 10 ug/ml VZV” value was determined as 17%. In addition, the “IC50 (ug/ml) HSV” value in the assay with HSV-1 worked out at 2 µg/mL (≈ 4.07 µM).
Regarding `COc1cc(C)c(Cl)cc1NC(=S)Nc1ccc(NC(=O)c2ccccc2C)cc1` [Example 850, N-{4-[3-(5-Chloro-2-methoxy-4-methyl-phenyl)-thioureido]-phenyl}-2-methyl-benzamide], in the assay with VZV strain Ellen, the inhibition at 10 µg/mL came out at 28% and the IC50 was determined as 5 µg/mL (≈ 11.4 µM). In addition, the IC50 in the assay with HSV-1 came out at 0.09 µg/mL (≈ 0.205 µM).
In the case of `CC(NC(=S)Nc1ccc(NC(=O)c2cc3ccccc3cn2)cc1)c1ccc(C#N)cc1` (stereo not shown) [Example 986, Isoquinoline-3-carboxylic acid (4-{3-[1-(4-cyano-phenyl)-ethyl]-thioureido}-phenyl)-amide], the results for the IC50 with VZV strain Ellen and with HSV-1 were 0.05 µg/mL (≈ 0.111 µM) and above 10 µg/mL, respectively.
For `COc1c(Cl)cc(NC(=S)Nc2ccc(NC(=O)c3cccc(F)c3)cc2)cc1Cl` [Example 872, N-{4-[3-(3,5-Dichloro-4-methoxy-phenyl)-thioureido]-phenyl}-3-fluoro-benzamide], in the assay on VZV strain Ellen, the inhibition at 10 µg/mL was found to be 28% and the IC50 is above 10 µg/mL. Besides, the IC50 in the assay on HSV-1 was found to be 4 µg/mL (≈ 8.61 µM).

Values taken from patent publication US6462055B2, “Alpha-methylbenzyl-containing thiourea inhibitors of herpes viruses containing a phenylenediamine group” (Wyeth, priority 1998, dated 2002).
